How the values were obtained:
[1] = system: androgen dependent signaling (androgen sensitive organs); experiment: Hershberger Assay; format: in vivo, rat; conditions: 3 mg/kg (positive control), 10 days, with TP 0.4 mg/kg, castrated rats, mean ± SD (n=6)
Method: The effect of AR antagonists on androgen dependent signaling in vivo was assessed using the Hershberger assay. In this assay, peripubertal castrated male Sprague-Dawley rats were administered AR antagonists described herein in the presence of testosterone (0.4 mg/kg testosterone propionate) and the weights of androgen dependent organs measured. Dosing was continued for 10 days and measurements taken 24 h after the last dose. The extent of antagonism of AR and consequent inhibition of organ growth was evaluated by comparison to the castration control. Compounds of Formula (I) were dosed orally QD and an endpoint assessment made by change in weight of 5 androgen sensitive organs (ASO): Paired Cowper's Glands (CG), Seminal Vesicles with Fluids and Coagulating Glands (SVCG), Glans Penis (GP), Ventral Prostate (VP) and Levator Ani-Bulbocavernosus Complex (LABC)). According to assay guidelines, statistically significant suppression of ASO is required in 2 of 5 organs for a compound to be classified as an anti-androgen (analysis was performed by t-test/Mann-Whitney).
Unless otherwise stated, compounds defined herein were administered at 30 mg/kg and flutamide (FT), positive control, at 3 mg/kg. All compounds were co-administered with testosterone propionate (TP, 0.4 mg/kg) which was also administered alone, untreated control, (castrated only rats served as the control for complete androgen blockade). A statistically significant change in ASO achieved in at least 2 of 5 organs was indicative of an active compound.

[2] = target: T1, F876L mutant Androgen Receptor (AR-F876L) (Homo sapiens (Human), UniProt P10275, F877L); experiment: LNCaP-AR-F876L ANT reporter assay (antagonist mode); format: cell-based; conditions: for IC50: antagonist mode, pIC50 = −Log10(IC50 in Molar), read-out: LNCaP-AR-F876L ANT pIC50 (converted); for Emax: read-out: LNCaP-AR-F876L ANT MAX % Inh
[3] = target: T1, F876L mutant Androgen Receptor (AR-F876L); experiment: LNCaP-AR-F876L AG reporter assay (agonist mode); format: cell-based; conditions: for EC50: read-out: LNCaP-AR-F876L AG pEC50 (converted); for Emax: read-out: LNCaP-AR-F876L AG MAX % Stim
rGABA-gated Cl− channel = experiment: GABA-Gated Cl Channel Antagonist Radioligand Binding Assay; design: species or system rat; conditions: 10 μM single point, [35S]-TBPS, cerebral cortex membrane homogenates
Summary of the method: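 Rat cerebral cortex membranes (120 μg protein) incubated 120 min at 22° C with 3 nM […] in 50 mM Na2HPO4/KH2PO4 pH 7.4, 500 mM NaCl; nonspecific binding defined with 20 μM picrotoxinin. Bound label counted after filtration; values are percent inhibition of specific binding at 10 μM compound.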

[4] = target: T2, wild-type Androgen Receptor (AR-wt) (Homo sapiens (Human), UniProt P10275); experiment: LNCaP-AR-wt AG reporter assay (agonist mode); format: cell-based; conditions: for EC50: read-out: LNCaP-AR-wt AG pEC50 (converted); for Emax: read-out: LNCaP-AR-wt AG MAX % Stim
[5] = target: T2, wild-type Androgen Receptor (AR-wt); experiment: LNCaP-AR-wt ANT reporter assay (antagonist mode); format: cell-based; conditions: for IC50: antagonist mode, pIC50 = −Log10(IC50 in Molar), read-out: LNCaP-AR-wt ANT pIC50 (converted); for Emax: read-out: LNCaP-AR-wt ANT MAX % Inh
[6] = maximum % inhibition of R1881 control response over the tested concentration range
[7] = agonist mode, pEC50 = −Log10(EC50 in Molar)
[8] = maximum % stimulation (agonist response) over the tested concentration range

T2 sequence (P10275 whole entry): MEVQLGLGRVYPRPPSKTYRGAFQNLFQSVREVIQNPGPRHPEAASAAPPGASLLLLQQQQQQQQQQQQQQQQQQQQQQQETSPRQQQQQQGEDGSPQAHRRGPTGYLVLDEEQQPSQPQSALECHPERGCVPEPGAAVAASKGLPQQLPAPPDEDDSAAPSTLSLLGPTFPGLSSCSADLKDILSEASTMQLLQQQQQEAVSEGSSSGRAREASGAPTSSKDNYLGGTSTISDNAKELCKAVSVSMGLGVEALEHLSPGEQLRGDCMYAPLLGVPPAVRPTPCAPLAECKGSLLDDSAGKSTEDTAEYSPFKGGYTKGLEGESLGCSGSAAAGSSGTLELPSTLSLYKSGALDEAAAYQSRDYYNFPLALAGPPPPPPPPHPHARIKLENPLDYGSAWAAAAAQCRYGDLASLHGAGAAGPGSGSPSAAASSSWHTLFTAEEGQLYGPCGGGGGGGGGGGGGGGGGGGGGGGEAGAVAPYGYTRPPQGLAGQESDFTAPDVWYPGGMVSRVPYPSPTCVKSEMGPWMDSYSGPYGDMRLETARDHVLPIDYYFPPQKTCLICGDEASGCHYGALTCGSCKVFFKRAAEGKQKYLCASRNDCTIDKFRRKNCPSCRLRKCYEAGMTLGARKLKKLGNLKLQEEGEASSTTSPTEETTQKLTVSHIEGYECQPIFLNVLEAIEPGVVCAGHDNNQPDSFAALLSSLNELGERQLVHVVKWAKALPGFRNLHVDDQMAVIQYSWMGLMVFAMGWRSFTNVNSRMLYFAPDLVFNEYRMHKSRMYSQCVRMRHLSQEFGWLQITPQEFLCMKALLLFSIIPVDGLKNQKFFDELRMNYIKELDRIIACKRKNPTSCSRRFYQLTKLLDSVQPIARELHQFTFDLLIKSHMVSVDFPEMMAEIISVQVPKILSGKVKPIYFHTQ
T1 sequence (P10275 whole entry F877L): as the sequence (P10275 whole entry) above, with F877L counted along it

Row | SMILES | ASO Organ Growth (% of TP control) SVCG [1] | ASO Organ Growth (% of TP control) VP [1] | IC50 [2] [nM] | Emax [2, 6] [%] | EC50 [3, 7] [nM] | Emax [3, 8] [%] | rGABA-gated Cl− channel % inh @10 μM (rGABA-gated Cl− channel) [%] | EC50 [4, 7] [nM] | Emax [4, 8] [%] | IC50 [5] [nM] | Emax [5, 6] [%] | LNCaP-AR-F876L ANT MAX % Inh [2, 6] [%] | LNCaP-AR-F876L AG pEC50 [3, 7] | LNCaP-AR-F876L AG MAX % Stim [3, 8] [%] | LNCaP-AR-wt AG pEC50 [4, 7] | LNCaP-AR-wt AG MAX % Stim [4, 8] [%] | LNCaP-AR-wt ANT MAX % Inh [5, 6] [%]
1 | CC(C)C(=O)Nc1ccc([N+](=O)[O-])c(C(F)(F)F)c1 [Flutamide, flutamide, reference compound] | 16.6 ± 16.3 % of TP control | 24.4 ± 35.5 % of TP control | – | – | – | – | – | – | – | – | – | – | – | – | – | – | –
2 | N#Cc1ncc(N2C(=O)C3(CCC3)N(c3ccc(OC4CCN(CCF)CC4)nc3)C2=S)cc1C(F)(F)F [Cpd 67, 5-[8-[6-[[1-(2-fluoroethyl)-4-piperidyl]oxy]-3-pyridyl]-5-oxo-7-thioxo-6,8-diazaspiro[3.4]octan-6-yl]-3-(trifluoromethyl)pyridine-2-carbonitrile] | – | – | 46.8 | 97.4 | > 15100 | 0.7 | 53.4 | > 15100 | 0.4 | 42.7 | 99.6 | – | – | – | – | – | –
3 | N#Cc1ncc(N2C(=O)C3(CCC3)N(c3ccc(N4CCN(C(=O)N5CCCC5)CC4)cc3)C2=S)cc1C(F)(F)F [Cpd 76, 5-(8-oxo-5-(4-(4-(pyrrolidine-1-carbonyl)piperazin-1-yl)phenyl)-6-thioxo-5,7-diazaspiro[3.4]octan-7-yl)-3-(trifluoromethyl)picolinonitrile] | – | – | 141 | 97.5 | > 15100 | 2.2 | 85.4 | > 15100 | 0.6 | 93.3 | 102 | – | – | – | – | – | –
4 | CN1CCC(n2ncc3cc(N4C(=S)N(c5cnc(C#N)c(Cl)c5)C(=O)C45CCC5)ccc32)CC1 [Cpd 183, 3-chloro-5-[8-[1-(1-methyl-4-piperidyl)indazol-5-yl]-5-oxo-7-thioxo-6,8-diazaspiro[3.4]octan-6-yl]pyridine-2-carbonitrile] | – | – | 275 | 101 | > 15100 | -0.1 | 37.9 | > 15100 | 0.3 | 513 | 100 | – | – | – | – | – | –
5 | N#Cc1ncc(N2C(=O)C3(CCC3)N(c3ccc4nn(CCO)cc4c3)C2=S)cc1C(F)(F)F [Cpd 161, 5-[8-[2-(2-hydroxyethyl)indazol-5-yl]-5-oxo-7-thioxo-6,8-diazaspiro[3.4]octan-6-yl]-3-(trifluoromethyl)pyridine-2-carbonitrile] | – | – | 468 | 99.3 | > 15100 | 0.3 | 77.9 | > 15100 | 0.2 | 1050 | 97.2 | – | – | – | – | – | –
6 | N#Cc1ncc(N2C(=O)C3(CCC3)N(c3ccc(OC4CCCNCC4)cc3)C2=S)cc1C(F)(F)F (centres unmarked) [Cpd 30, 5-[8-[4-(azepan-4-yloxy)phenyl]-5-oxo-7-thioxo-6,8-diazaspiro[3.4]octan-6-yl]-3-(trifluoromethyl)pyridine-2-carbonitrile] | – | – | 91.2 | – | – | – | 53.6 | – | – | 708 | – | 100.6 | <4.82 | 0.3 | <4.82 | 0.3 | 99.7
7 | CNC(=O)N1CCN(Cc2ccc(N3C(=S)N(c4cnc(C#N)c(C(F)(F)F)c4)C(=O)C34CCC4)cc2)CC1 [Cpd 53, 4-[[4-[6-[6-cyano-5-(trifluoromethyl)-3-pyridyl]-5-oxo-7-thioxo-6,8-diazaspiro[3.4]octan-8-yl]phenyl]methyl]-N-methyl-piperazine-1-carboxamide] | – | – | 45.7 | 100 | > 15100 | 0.1 | 52.4 | > 15100 | 0.4 | 123 | 102 | – | – | – | – | – | –
8 | N#Cc1ncc(N2C(=O)C3(CCC3)N(c3ccc(O[C@H]4CCNC[C@H]4F)cc3)C2=S)cc1C(F)(F)F (racemic) [Cpd 96, 5-[8-(3RS, 4SR) [4-[(3-fluoro-4-piperidyl)oxy]phenyl]-5-oxo-7-thioxo-6,8-diazaspiro[3.4]octan-6-yl]-3-(trifluoromethyl)pyridine-2-carbonitrile] | – | – | 74.1 | 99.9 | > 15100 | 0.4 | 26.5 | > 15100 | 0.9 | 126 | 100 | – | – | – | – | – | –
